{"source": "patent US6544930B2", "about": "“Compact storage and shipping system for glyphosate herbicide” (Monsanto Technology LLC, priority 1998, dated 2003)", "key": {"[1]": {"experiment": "Viscosity of glyphosate salt solutions and compositions", "format": "physicochemical", "details": "25° C.; 46% a.e. by weight solution without surfactant", "experimental": "(§1) Specific gravity (20/15.6° C.), viscosity at 25° C. and cloud point are recorded for each composition prepared as shown in Table 5. Cloud point is a measure of the maximum temperature at which a given aqueous composition containing a surfactant and a salt at defined concentrations forms a single-phase solution. Above the cloud point, the surfactant separates from the solution, initially as a hazy or cloudy dispersion, and, upon standing, as a distinct phase generally rising to the surface of the solution. Cloud point is determined by heating the composition until the solution becomes cloudy, and then allowing the composition to cool, with agitation, while its temperature is continuously monitored. A temperature reading taken when the solution clears is a measure of cloud point.\nThe maximum surfactant concentration attainable in practice in an aqueous concentrate composition containing glyphosate salt at 540 g a.e./l is compared for MEA and IPA salts. This is determined by adding a selected surfactant in increments to a 46% a.e. by weight aqueous solution of the glyphosate salt until the glyphosate weight/volume concentration falls from its initial level (565 g a.e./l for IPA salt, 602 g a.e./l for MEA salt) to 540 g a.e./l. […] When the maximum attainable surfactant concentration is reached, viscosity is measured at 25° C. […]"}, "[2]": {"experiment": "Maximum attainable surfactant concentration at 540 g a.e./l glyphosate", "format": "physicochemical", "experimental": "The maximum surfactant concentration attainable in practice in an aqueous concentrate composition containing glyphosate salt at 540 g a.e./l is compared for MEA and IPA salts. This is determined by adding a selected surfactant in increments to a 46% a.e. by weight aqueous solution of the glyphosate salt until the glyphosate weight/volume concentration falls from its initial level (565 g a.e./l for IPA salt, 602 g a.e./l for MEA salt) to 540 g a.e./l. The study is conducted using either Surfactant A or Surfactant F of Table 3 above. When the maximum attainable surfactant concentration is reached, viscosity is measured at 25° C."}, "[3]": {"experiment": "Glyphosate a.e. weight/volume concentration of salt solution", "format": "physicochemical", "details": "for weight/volume concentration of glyphosate: 25° C., 46.0% by weight glyphosate a.e.; for glyphosate a.e. contained in 1 liter of solution: 30% a.e. by weight solution at 20° C.; for more glyphosate a.e. per liter than IPA salt solution: equal a.e. weight concentration (30% a.e. by weight, 20° C.)", "experimental": "Thus 1 liter of 30% a.e. by weight glyphosate potassium salt solution at 20° C. contains approximately 376 g glyphosate a.e./l, whereas 1 liter of 30% a.e. by weight glyphosate IPA salt solution at 20° C. contains approximately 347 g glyphosate a.e./l. In other words, at equal a.e. weight concentration, the potassium salt solution delivers about 8% more glyphosate a.e. per liter.\nSimilarly, 1 liter of 30% a.e. by weight glyphosate MEA salt solution at 20° C. contains approximately 371 g glyphosate a.e./l. Therefore at equal a.e. weight concentration, the MEA salt solution delivers about 7% more glyphosate a.e. per liter than an IPA salt solution.\n(§2) In a 1 liter glass vessel with magnetic stirrer are mixed 479.2 g glyphosate acid, technical grade (assay 96%), 166.0 g monoethanolamine and water to 1000 g. Reaction of the glyphosate acid with the monoethanolamine to form the MEA salt of glyphosate is exothermic. The reaction mixture is allowed to cool to room temperature. The specific gravity (20/15.6° C.) of the resulting 62.6% by weight aqueous solution of glyphosate MEA salt, containing 46.0% by weight glyphosate a.e., is measured and found to be 1.32. The density of the solution at 25° C. is […], thus the volume at 25° C. of 1000 g of this solution is 763 ml and the weight/volume concentration of glyphosate is 602 g a.e./l."}, "[4]": {"experiment": "Specific gravity / density of aqueous glyphosate salt solutions and compositions (Mettler DA-300 meter)", "format": "physicochemical", "experimental": "Specific gravities are measured using a Mettler DA-300 Density/Specific Gravity Meter.\nas §2, with “The specific gravity (20/15.6° C.) of the resulting 62.6% by weight aqueous solution of glyphosate MEA salt, containing 46.0% by weight glyphosate a.e., is measured and found to be 1.32.” left out\nA series of aqueous solutions of glyphosate MEA salt, having a range of glyphosate a.e. concentrations, are prepared by the general procedure of Example 1. Specific gravity is measured for each solution.\nas §1, with “Specific gravity (20/15.6° C.), viscosity at 25° C. and cloud point are recorded for each composition prepared as shown in Table 5.” left out"}, "[5]": {"experiment": "Solubility in water", "format": "physicochemical", "details": "20° C.; for solubility in pure water: weight of salt per weight of solution", "from_the_text": "Solubility in water of the potassium and MEA salts of glyphosate is believed not to be recorded in prior art but is readily determined by procedures familiar to those skilled in the art. Similarly, aqueous solutions of these salts at concentrations greater than about 40% by weight are believed not to have been specifically disclosed, thus any unusual or unpredicted properties of such solutions have not been publicly known. Concentrations expressed as percent by weight herein relate to parts by weight of salt or acid equivalent per 100 parts by weight of solution.\nThe solubility of the MEA salt is very similar to the solubility of the IPA salt."}, "[6]": {"details": "cited from earlier work"}, "[7]": {"details": "20/15.6° C., solution containing 46.0% by weight glyphosate a.e."}, "[8]": {"details": "MEA salt solution 29.9% a.e. by weight, IPA salt solution 30.2%"}, "[9]": {"details": "20/18.6° C., 30% a.e. by weight monobasic salt solution"}}, "note": "Structures can show the parent of a compound that is named as a salt.", "data": [{"smiles": "O=C(O)CNCP(=O)(O)O", "note": "[glyphosate MEA salt, monoethanolammonium salt of glyphosate]", "values": [{"measurement": "viscosity", "setting": "[1]", "result": 88, "unit": "cPs"}, {"measurement": "surfactant concentration relative to the maximum attainable using the IPA salt", "setting": "[2]", "result": "more than 2.5 times"}, {"measurement": "weight/volume concentration of glyphosate", "setting": "[3]", "result": 602, "unit": "g a.e./l"}, {"measurement": "glyphosate a.e. contained in 1 liter of solution", "setting": "[3]", "result": "approximately 371 g glyphosate a.e./l"}, {"measurement": "more glyphosate a.e. per liter than IPA salt solution", "setting": "[3]", "result": "about 7%"}, {"measurement": "Specific Gravity", "setting": "[4]; [7]", "result": 1.32}, {"measurement": "Specific Gravity", "setting": "[4]; 20/18.6° C., 30% a.e. by weight monobasic salt solution, listed as monoethanolammonium (MEA)", "result": 1.2357}, {"measurement": "specific gravity higher than that of 30.2% IPA salt solution", "setting": "[4]; 29.9% a.e. by weight MEA salt solution", "result": 3.7, "unit": "%"}, {"measurement": "Specific Gravity", "setting": "[4]; [8]", "result": 1.1991}, {"measurement": "specific gravity compared with corresponding IPA salt solution", "setting": "[4]; all concentrations, FIG. 1", "result": "significantly higher"}, {"measurement": "solubility in pure water as glyphosate acid equivalent", "setting": "[5]", "result": "about 47 % a.e. by weight"}, {"measurement": "solubility in pure water as glyphosate acid equivalent", "setting": "[5]; listed as MEA salt", "result": "about 47 % a.e. by weight"}, {"measurement": "solubility in pure water", "setting": "[5]", "result": "about 64 % by weight"}]}, {"smiles": "O=C(O)CNCP(=O)(O)O", "note": "[Glyphosate, N-phosphonomethylglycine]", "values": [{"measurement": "solubility in water", "setting": "[6]; 25° C.", "result": 1.16, "unit": "% by weight"}]}, {"smiles": "O=C(O)CNCP(=O)(O)O", "note": "[glyphosate potassium salt]", "values": [{"measurement": "glyphosate a.e. contained in 1 liter of solution", "setting": "[3]; potassium salt", "result": "approximately 376 g glyphosate a.e./l"}, {"measurement": "more glyphosate a.e. per liter than IPA salt solution", "setting": "[3]; potassium salt", "result": "about 8%"}, {"measurement": "Specific Gravity", "setting": "[4]; 20/18.6° C., 30% a.e. by weight monobasic salt solution, potassium salt", "result": 1.2539}, {"measurement": "solubility in pure water as glyphosate acid equivalent", "setting": "[5]; listed as potassium salt, potassium salt", "result": "about 44 % a.e. by weight"}, {"measurement": "solubility in pure water as glyphosate acid equivalent", "setting": "[5]; potassium salt", "result": "about 44 % a.e. by weight"}, {"measurement": "solubility in pure water", "setting": "[5]; potassium salt", "result": "about 54 % by weight"}]}, {"smiles": "C[S+](C)C.O=C([O-])CNCP(=O)(O)O", "note": "[trimethylsulfonium (TMS)]", "values": [{"measurement": "Specific Gravity", "setting": "[4]; [9]", "result": 1.1904}]}, {"smiles": "CCCN.O=C(O)CNCP(=O)(O)O", "values": [{"measurement": "Specific Gravity", "setting": "[4]; [9]", "result": 1.1429}]}, {"smiles": "CN", "note": "[methylammonium]", "values": [{"measurement": "Specific Gravity", "setting": "[4]; [9]", "result": 1.1667}]}, {"smiles": "CC(C)N.O=C(O)CNCP(=O)(O)O", "note": "[glyphosate IPA salt, isopropylammonium salt of glyphosate]", "values": [{"measurement": "viscosity", "setting": "[1]", "result": 165, "unit": "cPs"}, {"measurement": "weight/volume concentration of glyphosate", "setting": "[3]", "result": 565, "unit": "g a.e./l"}, {"measurement": "glyphosate a.e. contained in 1 liter of solution", "setting": "[3]", "result": "approximately 347 g glyphosate a.e./l"}, {"measurement": "limit of solubility in aqueous solution", "setting": "[6]; only slightly higher than about 62% by weight", "result": "> 62", "unit": "% by weight"}, {"measurement": "Specific Gravity", "setting": "[4]; [7]", "result": 1.24}, {"measurement": "Specific Gravity", "setting": "[4]; [9]", "result": 1.1554}, {"measurement": "Specific Gravity", "setting": "[4]; [8]", "result": 1.1566}]}, {"smiles": "O=C(O)CNCP(=O)(O)O", "values": [{"measurement": "Specific Gravity", "setting": "[4]; [9]", "result": 1.1814}]}, {"smiles": "CCN.O=C(O)CNCP(=O)(O)O", "values": [{"measurement": "Specific Gravity", "setting": "[4]; [9]", "result": 1.1599}]}]}
